Tests used:
[1] = Inhibition of asexual blood stage of Plasmodium falciparum 3D7 PKA assessed as inhibition of parasite proliferation after 72 hrs by Malstat assay
[2] = Inhibition of asexual blood stage of chloroquine-resistant Plasmodium falciparum W2mef PKA assessed as inhibition of parasite proliferation after 72 hrs by Malstat assay

Compound | IC50 [1] [µM] | IC50 [2] [µM]
CCCCCNc1nc(C)c(C#N)c2ccccc12 | 8.6 | 9.6
CCCCNc1nc(CC)c(C#N)c2ccccc12 | 25 | 22
Cc1nc(NCC(C)C)c2ccccc2c1C#N | > 50 | 28
CCNc1nc(C)c(C#N)c2ccccc12 | > 50 | > 50
Cc1nc(N)c2ccccc2c1C#N | 34 | 36
Cc1nc(NCc2ccccc2)c2ccccc2c1C#N | > 50 | > 50
CCCCOc1nc(C)c(C#N)c2ccccc12 | 36 | 16
CCCCNc1nc(C)c(C(N)=O)c2ccccc12 | > 50 | 
Cc1nc(NC2CCCCC2)c2ccccc2c1C#N | > 50 | > 50
CCCNc1nc(C)c(C#N)c2ccccc12 | > 50 | > 50
CCCCNc1nc(C)c(C#N)c2ccccc12 | 34 | 33
Cc1nc(NC(C)(C)C)c2ccccc2c1C#N | 5.2 | 4.2

Source: ChEMBL document CHEMBL3792329, “Exploration of 3-methylisoquinoline-4-carbonitriles as protein kinase A inhibitors of Plasmodium falciparum” (Bioorg Med Chem, 2016)
